Measured values taken from BindingDB's records for doi:10.1021/jm058041z (University of Würzburg, 2005).

Test: Inhibition of acetylcholinesterase

## Nc1c2c(nc3c(CO)cccc13)CCCC2 [9-amino-5,6,7,8-tetrahydroacridin-4yl)methano]
  IC50: 0.125 µM
